Results published in PMC7570844, “Skin Damages—Structure Activity Relationship of Benzimidazole Derivatives Bearing a 5-Membered Ring System” (Molecules, 2020).
≈ marks a conversion by molar mass, not a printed value.

Key:
[1] = tested on: herpes simplex virus-1 (KOS); assay: Antiviral activity in HEL cell cultures (CPE, MTS); type: cell-based; conditions: Human alphaherpesvirus 1, HEL cells
[2] = tested on: Trichophyton mentagrophytes; assay: Antidermatophyte plaque growth inhibition; type: cell-based; conditions: T. mentagrophytes, 100 µg/mL, '+' has no key, read-out: Percent growth inhibition
Adeno virus-2 = assay: Antiviral activity in HEL cell cultures (CPE, MTS); type: cell-based; conditions: Adeno virus-2, HEL cells
vaccinia virus = assay: microbe, parasite or virus in culture; type: cell-based; conditions: Orthopoxvirus vaccinia, HEL, read-out: Antiviral EC50
[3] = tested on: herpes simplex virus-1 TK-KOS ACVr; assay: microbe, parasite or virus in culture; type: cell-based; conditions: Human alphaherpesvirus 1, HEL, read-out: Antiviral EC50
[4] = tested on: Respiratory syncytial virus; assay: microbe, parasite or virus in culture; type: cell-based; conditions: human respiratory syncytial virus, HeLa cells, read-out: Antiviral EC50
[5] = tested on: Candida albicans (ATCC 10231); assay: Anti-Candida albicans broth microdilution MIC; conditions: Candida albicans, ATCC10231, 24 h
[6] = tested on: human melanoma cells (SK-Mel 5); assay: Cell proliferation inhibition
[7] = DPPH radical scavenging test; conditions: mean ± SEM
Coxsackie virus B4 = assay: Antiviral activity in HeLa cell cultures (CPE, MTS); type: cell-based; conditions: Enterovirus B; Coxsackie virus B4, HeLa cells
[8] = Ferric reducing antioxidant power (FRAP) test; conditions: mean ± SEM
[9] = tested on: herpes simplex virus-2 (G); assay: Antiviral activity in HEL cell cultures (CPE, MTS); type: cell-based; conditions: Human alphaherpesvirus 2; Herpes simplex virus-2, HEL cells
[10] = tested on: vesicular stomatitis virus; assay: microbe, parasite or virus in culture; type: cell-based; conditions: HeLa, read-out: Antiviral EC50
HeLa cell cultures = conditions: human
[11] = tested on: HEK293T (Normal Kidney Epithelial Cells); assay: Cell proliferation inhibition, non-cancer control cells; conditions: Homo sapiens, HEK-293T
Epidermophyton floccosum = assay: Antidermatophyte plaque growth inhibition; type: cell-based; conditions: E. floccosum, 100 µg/mL, '+' has no key, read-out: Percent growth inhibition
[12] = tested on: human embryonic lung (HEL) cell cultures
[13] = UV filtering parameters of compounds in solution (MeOH, 290-400 nm)
Microsporum canis = assay: Antidermatophyte plaque growth inhibition; type: cell-based; conditions: M. canis, 100 µg/mL, '+' has no key, read-out: Percent growth inhibition
Trichophyton tonsurans = assay: Antidermatophyte plaque growth inhibition; type: cell-based; conditions: T. tonsurans, 100 µg/mL, '+' has no key, read-out: Percent growth inhibition
Human Coronavirus (229E) = assay: microbe, parasite or virus in culture; type: cell-based; conditions: HEL, read-out: Antiviral EC50
[14] = tested on: human pancreatic carcinoma cells (Mia Paca-2); assay: Cell proliferation inhibition
[15] = tested on: human cervical carcinoma cells (HeLa); assay: Cell proliferation inhibition
Microsporum gypseum = assay: Antidermatophyte plaque growth inhibition; type: cell-based; conditions: Nannizzia gypsea; M. gypseum, 100 µg/mL; '+' has no key; read-out: Percent growth inhibition
[16] = tested on: human T-lymphocyte cells (CEM); assay: Cell proliferation inhibition

SMILES	EC50 [1] [µM]	inhibition at 100 µg/mL [2] [%]	EC50 (Adeno virus-2) [µM]	EC50 (vaccinia virus) [µM]	EC50 [3] [µM]	EC50 [4] [µM]	MIC [5] [µg/mL]	IC50 [6] [µM]	EC50 (Coxsackie virus B4) [µM]	FRAP [8] [µmolTE/g]	EC50 [9] [µM]	EC50 [10] [µM]	Cytotoxic concentration (HeLa cell cultures) [µM]	IC50 [11] [µM]	inhibition at 100 µg/mL (Epidermophyton floccosum) [%]	Cytotoxic concentration [12] [µM]	SPF [13]	UVA/UVB [13]	UVAPF [13]	λc (critical wavelength) [13] [nm]	other results
O=C(O)c1ccc2nc(-c3ccco3)[nH]c2c1 [Compound 14, 2-(furan-2-yl)-1H-benzimidazole-5-carboxylic Acid]	> 100	< 0	> 100	> 100	> 100	> 100	16 (≈ 70.1 µM)	> 100	> 100	26.67 ± 2.89	> 100	> 100	> 100	> 100	6.45 ± 1.47	> 100	16.66±1.21	0.5	1.20±0.10	332	DPPH IC50 [7]: 1416.38 ± 21.40 µg/mL; inhibition at 100 µg/mL (Microsporum canis): 18.7 ± 0.59%; inhibition at 100 µg/mL (Trichophyton tonsurans): < 0%; EC50 (Human Coronavirus (229E)): > 100 µM; IC50 [14]: > 100 µM; IC50 [15]: > 100 µM; inhibition at 100 µg/mL (Microsporum gypseum): < 0%; melting point: > 250 °C; IC50 [16]: 75 ± 35 µM
O=C(O)c1ccc2[nH]c(-c3cccs3)nc2c1 [Compound 15, 2-(thiophen-2-yl)-1H-benzimidazole-5-carboxylic Acid]	> 100	< 0	> 100	> 100	> 100	> 100	16 (≈ 65.5 µM)	> 100	> 100	181.84 ± 2.66	> 100	> 100	> 100	> 100	6.45 ± 2.98	> 100	6.40±0.12	0.43	1.42±0.11	342	DPPH (% Inhibition) ([7]; tested at 1 mg/mL): 30.23 ± 1.45%; inhibition at 100 µg/mL (Microsporum canis): 20.3 ± 0.54%; inhibition at 100 µg/mL (Trichophyton tonsurans): 4.48 ± 0.9%; EC50 (Human Coronavirus (229E)): > 100 µM; IC50 [14]: 80 ± 12 µM; IC50 [15]: > 100 µM; inhibition at 100 µg/mL (Microsporum gypseum): 2.14 ± 0.59%; melting point: > 250 °C; IC50 [16]: 50 ± 10 µM
